Measured values as given in the supplement of paper PMC11451515.

Tested on: SEM cells
Test: cell viability relative to DMSO control; higher = less cytotoxic
Details: 48 h
Summary of the method: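 Before seeding, each leukemia line was adapted for at least four passages in each medium. NOMO1 or SEM cells (500 cells/well) and P12-Ichikawa cells (1000 cells/well) went into 1536-well plates at 5 μl, then received library compounds in DMSO by pin dosing across 11 threefold concentrations, 47 μM to 0.79 nM. Readout was CellTiter-Glo One luminescence after 48 h at 37°C, and viability is given as a per-plate percentage of DMSO wells, with cell-free wells as background.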

[1] = HPLM + 10% dialyzed FBS, 0.000781 µM
[2] = HPLM + 10% dialyzed FBS, 0.00234 µM
[3] = HPLM + 10% dialyzed FBS, 0.00702 µM
[4] = HPLM + 10% dialyzed FBS, 0.0211 µM
[5] = HPLM + 10% dialyzed FBS, 0.0632 µM
[6] = HPLM + 10% dialyzed FBS, 0.19 µM
[7] = HPLM + 10% dialyzed FBS, 0.569 µM
[8] = HPLM + 10% dialyzed FBS, 1.71 µM
[9] = HPLM + 10% dialyzed FBS, 5.12 µM
[10] = HPLM + 10% dialyzed FBS, 15.4 µM
[11] = HPLM + 10% dialyzed FBS, 46.1 µM
[12] = RPMI 5 mM glucose + 10% FBS, 0.000781 µM
[13] = RPMI 5 mM glucose + 10% FBS, 0.00234 µM
[14] = RPMI 5 mM glucose + 10% FBS, 0.00702 µM
[15] = RPMI 5 mM glucose + 10% FBS, 0.0211 µM
[16] = RPMI 5 mM glucose + 10% FBS, 0.0632 µM
[17] = RPMI 5 mM glucose + 10% FBS, 0.19 µM
[18] = RPMI 5 mM glucose + 10% FBS, 0.569 µM
[19] = RPMI 5 mM glucose + 10% FBS, 1.71 µM
[20] = RPMI 5 mM glucose + 10% FBS, 5.12 µM
[21] = RPMI 5 mM glucose + 10% FBS, 15.4 µM
[22] = RPMI 5 mM glucose + 10% FBS, 46.1 µM
[23] = RPMI 5 mM glucose + 10% dialyzed FBS, 0.000781 µM
[24] = RPMI 5 mM glucose + 10% dialyzed FBS, 0.00234 µM
[25] = RPMI 5 mM glucose + 10% dialyzed FBS, 0.00702 µM
[26] = RPMI 5 mM glucose + 10% dialyzed FBS, 0.0211 µM
[27] = RPMI 5 mM glucose + 10% dialyzed FBS, 0.0632 µM
[28] = RPMI 5 mM glucose + 10% dialyzed FBS, 0.19 µM
[29] = RPMI 5 mM glucose + 10% dialyzed FBS, 0.569 µM
[30] = RPMI 5 mM glucose + 10% dialyzed FBS, 1.71 µM
[31] = RPMI 5 mM glucose + 10% dialyzed FBS, 5.12 µM
[32] = RPMI 5 mM glucose + 10% dialyzed FBS, 15.4 µM
[33] = RPMI 5 mM glucose + 10% dialyzed FBS, 46.1 µM

O=C1c2cccc(O)c2C(=O)c2c(O)cc(CO)cc21
cell viability [1]: 101% | cell viability [2]: 97.7% | cell viability [3]: 107% | cell viability [4]: 119% | cell viability [5]: 111% | cell viability [6]: 34% | cell viability [7]: 110% | cell viability [8]: 105% | cell viability [9]: 102% | cell viability [10]: 97.4% | cell viability [11]: 109% | cell viability [12]: 105% | cell viability [13]: 103% | cell viability [14]: 99.9% | cell viability [15]: 110% | cell viability [16]: 93% | cell viability [17]: 45% | cell viability [18]: 101% | cell viability [19]: 84.2% | cell viability [20]: 92.3% | cell viability [21]: 103% | cell viability [22]: 103% | cell viability [23]: 102% | cell viability [24]: 97.2% | cell viability [25]: 100% | cell viability [26]: 91.7% | cell viability [27]: 91.2% | cell viability [28]: 45.1% | cell viability [29]: 85.9% | cell viability [30]: 86.4% | cell viability [31]: 94.2% | cell viability [32]: 92.6% | cell viability [33]: 85.3%

O=C(NC1CC1)c1cccc(-c2ccc3c(NC(=O)C4CC4)n[nH]c3c2)c1
cell viability [1]: 98.9% | cell viability [2]: 98.1% | cell viability [3]: 107% | cell viability [4]: 96.2% | cell viability [5]: 97.6% | cell viability [6]: 95.1% | cell viability [7]: 97.2% | cell viability [8]: 98.5% | cell viability [9]: 90% | cell viability [10]: 62.8% | cell viability [11]: 18.8% | cell viability [12]: 97.1% | cell viability [13]: 106% | cell viability [14]: 109% | cell viability [15]: 107% | cell viability [16]: 103% | cell viability [17]: 98.4% | cell viability [18]: 103% | cell viability [19]: 113% | cell viability [20]: 89.4% | cell viability [21]: 51.3% | cell viability [22]: 11.1% | cell viability [23]: 103% | cell viability [24]: 108% | cell viability [25]: 104% | cell viability [26]: 104% | cell viability [27]: 116% | cell viability [28]: 115% | cell viability [29]: 102% | cell viability [30]: 104% | cell viability [31]: 86.1% | cell viability [32]: 56.9% | cell viability [33]: 18.2%

c1cc(-c2sc(-c3ccncc3)c(-c3ccncc3)c2-c2ccncc2)ccn1
cell viability [1]: 90.9% | cell viability [2]: 107% | cell viability [3]: 108% | cell viability [4]: 110% | cell viability [5]: 106% | cell viability [6]: 116% | cell viability [7]: 107% | cell viability [8]: 82.4% | cell viability [9]: 43.3% | cell viability [10]: 20.7% | cell viability [11]: 14.9% | cell viability [12]: 89.6% | cell viability [13]: 87.8% | cell viability [14]: 93.9% | cell viability [15]: 89.3% | cell viability [16]: 106% | cell viability [17]: 97.9% | cell viability [18]: 101% | cell viability [19]: 63.5% | cell viability [20]: 29.6% | cell viability [21]: 17.9% | cell viability [22]: 13.2% | cell viability [23]: 102% | cell viability [24]: 101% | cell viability [25]: 118% | cell viability [26]: 113% | cell viability [27]: 106% | cell viability [28]: 110% | cell viability [29]: 103% | cell viability [30]: 67.3% | cell viability [31]: 41% | cell viability [32]: 22.4% | cell viability [33]: 15.1%

Nc1ccc([S+](=O)([O-])Nc2ccccn2)cc1
cell viability [1]: 77.7% | cell viability [2]: 91.7% | cell viability [3]: 91.3% | cell viability [4]: 93.7% | cell viability [5]: 82.7% | cell viability [6]: 91% | cell viability [7]: 93.6% | cell viability [8]: 98.8% | cell viability [9]: 88.5% | cell viability [10]: 97% | cell viability [11]: 96.9% | cell viability [12]: 100% | cell viability [13]: 104% | cell viability [14]: 115% | cell viability [15]: 118% | cell viability [16]: 112% | cell viability [17]: 108% | cell viability [18]: 122% | cell viability [19]: 119% | cell viability [20]: 124% | cell viability [21]: 109% | cell viability [22]: 111% | cell viability [23]: 98.6% | cell viability [24]: 109% | cell viability [25]: 100% | cell viability [26]: 101% | cell viability [27]: 113% | cell viability [28]: 101% | cell viability [29]: 99% | cell viability [30]: 108% | cell viability [31]: 121% | cell viability [32]: 103% | cell viability [33]: 115%

Cc1cc(SCc2sc(-c3ccc(C(F)(F)F)c(F)c3)nc2C)ccc1OCC(=O)O
cell viability [1]: 104% | cell viability [2]: 107% | cell viability [3]: 105% | cell viability [4]: 40.9% | cell viability [5]: 103% | cell viability [6]: 109% | cell viability [7]: 108% | cell viability [8]: 111% | cell viability [9]: 105% | cell viability [10]: 98.9% | cell viability [11]: 96.1% | cell viability [12]: 102% | cell viability [13]: 74.9% | cell viability [14]: 96.7% | cell viability [15]: 43.2% | cell viability [16]: 100% | cell viability [17]: 107% | cell viability [18]: 99.4% | cell viability [19]: 101% | cell viability [20]: 104% | cell viability [21]: 93.8% | cell viability [22]: 103% | cell viability [23]: 93.4% | cell viability [24]: 93.3% | cell viability [25]: 106% | cell viability [26]: 48.4% | cell viability [27]: 93.6% | cell viability [28]: 104% | cell viability [29]: 100% | cell viability [30]: 100% | cell viability [31]: 91.6% | cell viability [32]: 101% | cell viability [33]: 96.5%

COC1=CC=C(C=C1)C/2=C/OC3=CC(=CC=C3C2=O)O
cell viability [1]: 116% | cell viability [2]: 113% | cell viability [3]: 113% | cell viability [4]: 114% | cell viability [5]: 123% | cell viability [6]: 109% | cell viability [7]: 114% | cell viability [8]: 122% | cell viability [9]: 130% | cell viability [10]: 115% | cell viability [11]: 136% | cell viability [12]: 117% | cell viability [13]: 124% | cell viability [14]: 136% | cell viability [15]: 109% | cell viability [16]: 133% | cell viability [17]: 117% | cell viability [18]: 98.9% | cell viability [19]: 106% | cell viability [20]: 143% | cell viability [21]: 122% | cell viability [22]: 145% | cell viability [23]: 124% | cell viability [24]: 139% | cell viability [25]: 112% | cell viability [26]: 110% | cell viability [27]: 115% | cell viability [28]: 120% | cell viability [29]: 122% | cell viability [30]: 121% | cell viability [31]: 133% | cell viability [32]: 131% | cell viability [33]: 142%

C[C@H]1[C@@H](CC(C[C@H]2O[C@@H]3O[C@]4(C)CC[C@H]5[C@H](C)CC[C@@H]([C@H]2C)[C@@]35OO4)C[S+](=O)([O-])c2ccc(COC(=O)N(C)C)cc2)O[C@@H]2O[C@]3(C)CC[C@H]4[C@H](C)CC[C@@H]1[C@@]24OO3
cell viability [1]: 96.1% | cell viability [2]: 91.3% | cell viability [3]: 97.2% | cell viability [4]: 99.8% | cell viability [5]: 102% | cell viability [6]: 89.3% | cell viability [7]: 72.9% | cell viability [8]: 5.9% | cell viability [9]: 7.11% | cell viability [10]: 6.96% | cell viability [11]: 4.59% | cell viability [12]: 101% | cell viability [13]: 103% | cell viability [14]: 91.3% | cell viability [15]: 115% | cell viability [16]: 106% | cell viability [17]: 108% | cell viability [18]: 23.9% | cell viability [19]: 6.39% | cell viability [20]: 7.58% | cell viability [21]: 7.01% | cell viability [22]: 5.47% | cell viability [23]: 109% | cell viability [24]: 112% | cell viability [25]: 94.1% | cell viability [26]: 105% | cell viability [27]: 107% | cell viability [28]: 104% | cell viability [29]: 27.5% | cell viability [30]: 6.28% | cell viability [31]: 6.52% | cell viability [32]: 6.47% | cell viability [33]: 4.61%
